Source: US20230348442A1, “GALECTIN-3 INHIBITING 2-HYDROXYCYCLOALKANE-1-CARBAMOYL DERIVATIVES” (Idorsia Pharmaceuticals Ltd, priority 2020, published 2023)

The compounds below were run against human Gal-3 (hGal-3) (Homo sapiens (Human), UniProt P17931) (assay: competitive binding assay: binding of biotinylated hGal-3 to microplate-adsorbed asialofetuin (ASF), spectrophotometric). Details: Activity on hGal-3; mean values of several measurements.
How it was run: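 Biotin-hGal-3/hGal-1 300-1000 ng/mL + cpd (DMSO dilutions) on ASF-coated plate, 3 h 4° C; wash; SA-HRP 80 ng/mL 1 h 4° C; wash; ABTS. IC50 = mean of several runs. hGal-1 preferably Cys→Ser (all six) mutant.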

Sequence of human Gal-3 (hGal-3) (P17931 whole entry): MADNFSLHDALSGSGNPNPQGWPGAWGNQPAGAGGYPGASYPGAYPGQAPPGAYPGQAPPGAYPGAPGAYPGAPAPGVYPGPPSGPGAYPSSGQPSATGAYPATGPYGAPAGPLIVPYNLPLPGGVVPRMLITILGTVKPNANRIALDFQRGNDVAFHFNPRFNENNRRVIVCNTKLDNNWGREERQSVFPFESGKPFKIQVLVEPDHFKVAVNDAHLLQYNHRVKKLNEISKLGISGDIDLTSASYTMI

| Structure (SMILES) | IC50 |
| --- | --- |
| CO[C@@H]1[C@@H](n2cc(-c3ccc(Cl)c(F)c3F)nn2)[C@@H](O)[C@@H](CO)O[C@H]1C(=O)N(c1cc(Br)cc(C#N)c1)[C@@H]1CCC[C@H]1O [Example 1.14.5R, (2R,3R,4S,5R,6R)-N-(3-bromo-5-cyanophenyl)-4-(4-(4-chloro-2,3-difluorophenyl)-1H-1,2,3-triazol-1-yl)-5-hydroxy-N-((1R,2R)-2-hydroxycyclopentyl)-6-(hydroxymethyl)-3-methoxytetrahydro-2H-pyran-2-carboxamide] | 25.5 nM |
| CO[C@@H]1[C@@H](n2cc(-c3cccc(F)c3)nn2)[C@@H](O)[C@@H](CO)O[C@H]1C(=O)N(c1cc(Cl)cc(C#N)c1)[C@H]1CCC[C@@H]1O [Example 1.15.4, (2R,3R,4S,5R,6R)-N-(3-chloro-5-cyanophenyl)-4-(4-(3-fluorophenyl)-1H-1,2,3-triazol-1-yl)-5-hydroxy-N-((1S,2S)-2-hydroxycyclopentyl)-6-(hydroxymethyl)-3-methoxytetrahydro-2H-pyran-2-carboxamide] | 54 nM |
| CO[C@@H]1[C@@H](n2cc(-c3cc(F)c(Cl)c(Cl)c3)nn2)[C@@H](O)[C@@H](CO)O[C@H]1C(=O)N(c1cc(Cl)cc(C#N)c1)[C@H]1CCC[C@@H]1O [Example 1.17.4, (2R,3R,4S,5R,6R)-N-(3-chloro-5-cyanophenyl)-4-(4-(3,4-dichloro-5-fluorophenyl)-1H-1,2,3-triazol-1-yl)-5-hydroxy-N-((1S,2S)-2-hydroxycyclopentyl)-6-(hydroxymethyl)-3-methoxytetrahydro-2H-pyran-2-carboxamide] | 29.7 nM |
| CO[C@@H]1[C@@H](n2cc(-c3cc(F)c(Cl)c(Cl)c3)nn2)[C@@H](O)[C@@H](CO)O[C@H]1C(=O)N(c1cc(Cl)cc(C#N)c1)[C@@H]1CCC[C@H]1O [Example 1.17.4R, (2R,3R,4S,5R,6R)-N-(3-chloro-5-cyanophenyl)-4-(4-(3,4-dichloro-5-fluorophenyl)-1H-1,2,3-triazol-1-yl)-5-hydroxy-N-((1R,2R)-2-hydroxycyclopentyl)-6-(hydroxymethyl)-3-methoxytetrahydro-2H-pyran-2-carboxamide] | 238 nM |
| CO[C@@H]1[C@@H](n2cc(-c3cc(F)c(Cl)c(Cl)c3)nn2)[C@@H](O)[C@@H](CO)O[C@H]1C(=O)N(c1cc(Br)cc(C#N)c1)[C@H]1CCC[C@@H]1O [Example 1.17.5, (2R,3R,4S,5R,6R)-N-(3-bromo-5-cyanophenyl)-4-(4-(3,4-dichloro-5-fluorophenyl)-1H-1,2,3-triazol-1-yl)-5-hydroxy-N-((1S,2S)-2-hydroxycyclopentyl)-6-(hydroxymethyl)-3-methoxytetrahydro-2H-pyran-2-carboxamide] | 46.3 nM |
| CO[C@@H]1[C@@H](n2cc(-c3ccc(Cl)cc3)nn2)[C@@H](O)[C@@H](CO)O[C@H]1C(=O)N(c1cc(Cl)cc(C#N)c1)[C@H]1CCC[C@@H]1O [Example 1.18.4, (2R,3R,4S,5R,6R)-N-(3-chloro-5-cyanophenyl)-4-(4-(4-chlorophenyl)-1H-1,2,3-triazol-1-yl)-5-hydroxy-N-((1S,2S)-2-hydroxycyclopentyl)-6-(hydroxymethyl)-3-methoxytetrahydro-2H-pyran-2-carboxamide] | 90.7 nM |
| CO[C@@H]1[C@@H](n2cc(-c3ccc(Cl)cc3)nn2)[C@@H](O)[C@@H](CO)O[C@H]1C(=O)N(c1cc(Cl)cc(C#N)c1)[C@@H]1CCC[C@H]1O [Example 1.18.4R, (2R,3R,4S,5R,6R)-N-(3-chloro-5-cyanophenyl)-4-(4-(4-chlorophenyl)-1H-1,2,3-triazol-1-yl)-5-hydroxy-N-((1R,2R)-2-hydroxycyclopentyl)-6-(hydroxymethyl)-3-methoxytetrahydro-2H-pyran-2-carboxamide] | 536 nM |
| CO[C@@H]1[C@@H](n2cc(-c3ccc(Br)cc3)nn2)[C@@H](O)[C@@H](CO)O[C@H]1C(=O)N(c1cc(Cl)cc(C#N)c1)[C@H]1CCC[C@@H]1O [Example 1.19.4, (2R,3R,4S,5R,6R)-4-(4-(4-bromophenyl)-1H-1,2,3-triazol-1-yl)-N-(3-chloro-5-cyanophenyl)-5-hydroxy-N-((1S,2S)-2-hydroxycyclopentyl)-6-(hydroxymethyl)-3-methoxytetrahydro-2H-pyran-2-carboxamide] | 163 nM |

Second part, the compound after the results:

| IC50 | Structure (SMILES) |
| --- | --- |
| 838 nM | CO[C@@H]1[C@@H](n2cc(-c3cccc(F)c3)nn2)[C@@H](O)[C@@H](CO)O[C@H]1C(=O)N(c1cc(Cl)cc(C#N)c1)[C@@H]1CCC[C@H]1O [Example 1.15.4R, (2R,3R,4S,5R,6R)-N-(3-chloro-5-cyanophenyl)-4-(4-(3-fluorophenyl)-1H-1,2,3-triazol-1-yl)-5-hydroxy-N-((1R,2R)-2-hydroxycyclopentyl)-6-(hydroxymethyl)-3-methoxytetrahydro-2H-pyran-2-carboxamide] |
| 66 nM | CO[C@@H]1[C@@H](n2cc(-c3cccc(F)c3)nn2)[C@@H](O)[C@@H](CO)O[C@H]1C(=O)N(c1cc(Br)cc(C#N)c1)[C@H]1CCC[C@@H]1O [Example 1.15.5, (2R,3R,4S,5R,6R)-N-(3-bromo-5-cyanophenyl)-4-(4-(3-fluorophenyl)-1H-1,2,3-triazol-1-yl)-5-hydroxy-N-((1S,2S)-2-hydroxycyclopentyl)-6-(hydroxymethyl)-3-methoxytetrahydro-2H-pyran-2-carboxamide] |
| 612 nM | CO[C@@H]1[C@@H](n2cc(-c3cccc(F)c3)nn2)[C@@H](O)[C@@H](CO)O[C@H]1C(=O)N(c1cc(Br)cc(C#N)c1)[C@@H]1CCC[C@H]1O [Example 1.15.5R, (2R,3R,4S,5R,6R)-N-(3-bromo-5-cyanophenyl)-4-(4-(3-fluorophenyl)-1H-1,2,3-triazol-1-yl)-5-hydroxy-N-((1R,2R)-2-hydroxycyclopentyl)-6-(hydroxymethyl)-3-methoxytetrahydro-2H-pyran-2-carboxamide] |
| 102 nM | CO[C@@H]1[C@@H](n2cc(-c3ccc(C#N)c(F)c3)nn2)[C@@H](O)[C@@H](CO)O[C@H]1C(=O)N(c1cc(Cl)cc(C#N)c1)[C@H]1CCC[C@@H]1O [Example 1.16.4, (2R,3R,4S,5R,6R)-N-(3-chloro-5-cyanophenyl)-4-(4-(4-cyano-3-fluorophenyl)-1H-1,2,3-triazol-1-yl)-5-hydroxy-N-((1S,2S)-2-hydroxycyclopentyl)-6-(hydroxymethyl)-3-methoxytetrahydro-2H-pyran-2-carboxamide] |
| 978 nM | CO[C@@H]1[C@@H](n2cc(-c3ccc(C#N)c(F)c3)nn2)[C@@H](O)[C@@H](CO)O[C@H]1C(=O)N(c1cc(Cl)cc(C#N)c1)[C@@H]1CCC[C@H]1O [Example 1.16.4R, (2R,3R,4S,5R,6R)-N-(3-chloro-5-cyanophenyl)-4-(4-(4-cyano-3-fluorophenyl)-1H-1,2,3-triazol-1-yl)-5-hydroxy-N-((1R,2R)-2-hydroxycyclopentyl)-6-(hydroxymethyl)-3-methoxytetrahydro-2H-pyran-2-carboxamide] |
| 62 nM | CO[C@@H]1[C@@H](n2cc(-c3ccc(C#N)c(F)c3)nn2)[C@@H](O)[C@@H](CO)O[C@H]1C(=O)N(c1cc(Br)cc(C#N)c1)[C@H]1CCC[C@@H]1O [Example 1.16.5, (2R,3R,4S,5R,6R)-N-(3-bromo-5-cyanophenyl)-4-(4-(4-cyano-3-fluorophenyl)-1H-1,2,3-triazol-1-yl)-5-hydroxy-N-((1S,2S)-2-hydroxycyclopentyl)-6-(hydroxymethyl)-3-methoxytetrahydro-2H-pyran-2-carboxamide] |
| 729 nM | CO[C@@H]1[C@@H](n2cc(-c3ccc(C#N)c(F)c3)nn2)[C@@H](O)[C@@H](CO)O[C@H]1C(=O)N(c1cc(Br)cc(C#N)c1)[C@@H]1CCC[C@H]1O [Example 1.16.5R, (2R,3R,4S,5R,6R)-N-(3-bromo-5-cyanophenyl)-4-(4-(4-cyano-3-fluorophenyl)-1H-1,2,3-triazol-1-yl)-5-hydroxy-N-((1R,2R)-2-hydroxycyclopentyl)-6-(hydroxymethyl)-3-methoxytetrahydro-2H-pyran-2-carboxamide] |
| 163 nM | CO[C@@H]1[C@@H](n2cc(-c3ccc(C#N)c(F)c3)nn2)[C@@H](O)[C@@H](CO)O[C@H]1C(=O)N(c1cc(C)cc(C#N)c1)[C@H]1CCC[C@@H]1O [Example 1.16.8, (2R,3R,4S,5R,6R)-4-(4-(4-cyano-3-fluorophenyl)-1H-1,2,3-triazol-1-yl)-N-(3-cyano-5-methylphenyl)-5-hydroxy-N-((1S,2S)-2-hydroxycyclopentyl)-6-(hydroxymethyl)-3-methoxytetrahydro-2H-pyran-2-carboxamide] |
| 1260 nM | CO[C@@H]1[C@@H](n2cc(-c3ccc(C#N)c(F)c3)nn2)[C@@H](O)[C@@H](CO)O[C@H]1C(=O)N(c1cc(C)cc(C#N)c1)[C@@H]1CCC[C@H]1O [Example 1.16.8R, (2R,3R,4S,5R,6R)-4-(4-(4-cyano-3-fluorophenyl)-1H-1,2,3-triazol-1-yl)-N-(3-cyano-5-methylphenyl)-5-hydroxy-N-((1R,2R)-2-hydroxycyclopentyl)-6-(hydroxymethyl)-3-methoxytetrahydro-2H-pyran-2-carboxamide] |
| 256 nM | COc1cc(C#N)cc(N(C(=O)[C@@H]2O[C@H](CO)[C@H](O)[C@H](n3cc(-c4ccc(C#N)c(F)c4)nn3)[C@H]2OC)[C@H]2CCC[C@@H]2O)c1 [Example 1.16.9, (2R,3R,4S,5R,6R)-4-(4-(4-cyano-3-fluorophenyl)-1H-1,2,3-triazol-1-yl)-N-(3-cyano-5-methoxyphenyl)-5-hydroxy-N-((1S,2S)-2-hydroxycyclopentyl)-6-(hydroxymethyl)-3-methoxytetrahydro-2H-pyran-2-carboxamide] |
| 1460 nM | COc1cc(C#N)cc(N(C(=O)[C@@H]2O[C@H](CO)[C@H](O)[C@H](n3cc(-c4ccc(C#N)c(F)c4)nn3)[C@H]2OC)[C@@H]2CCC[C@H]2O)c1 [Example 1.16.9R, (2R,3R,4S,5R,6R)-4-(4-(4-cyano-3-fluorophenyl)-1H-1,2,3-triazol-1-yl)-N-(3-cyano-5-methoxyphenyl)-5-hydroxy-N-((1R,2R)-2-hydroxycyclopentyl)-6-(hydroxymethyl)-3-methoxytetrahydro-2H-pyran-2-carboxamide] |
